We go through four molecules from US10465005B2, “JAML specific binding agents, antibodies, and uses related thereto” (Emory University, priority 2011, dated 2019).

Entries after “also recorded” stand apart in the source; their conditions may differ.

Assay [1] has as its system JAML shedding from differentiated HL60. Nature of the assay: JAML shedding with protease inhibitors, differentiated HL60. It is filed as cell-based, human. The following applies: PMA 200 nM; cocktail 1:50, AEBSF 1 mM, PMSF 2 mM, Phenanthroline 5 mM, NEM 6 mM; sandwich ELISA; FIG. 6A. On the procedure:
JAML shedding from differentiated HL60 was assayed as described in the legend for FIG. 5. Protease inhibitors were added to cell suspensions during incubation in H^+ with or without PMA. Inhibitors used were Sigma inhibitor cocktail (Cat #P8340) used at 1:50 dilution, AEBSF 1 mM, PMSF 2 mM, Phenanthroline 5 mM and NEM 6 mM.
To explore the mechanisms for release of JAML from the surface of differentiated HL60 and PLB-985 cells during activation with PMA, PMA was added to cells in the presence or absence of a variety of protease inhibitors. The protease inhibitor cocktail from Sigma that targets serine proteases was used as well as cysteine proteases and several independent inhibitors. […] (Le Gall et al., 2003, JBC 278 No46 45255-45268).
Cells were suspended at 100×10^6 cells/ml in 50 ml centrifuge tubes. PMA was added at a final concentration of 200 nM and tubes incubated at 37° C. of 30 min. Supernatants were collected by centrifugation. To eliminate the presence of macroparticles in the supernatants, ultracentrifugation was performed in a table-top microcentrifuge (Beckman TL-100) at 100,000 g for 30 minutes. The “cleared” supernatants were assayed for the presence of soluble JAML.
Purified antibody DW100 (100 μl/well of 10 μg/ml dilution) was coated onto a high binding 96 well plate (Immulon II) overnight at 4° C. or 1½ hr at 37° C. After washing, 200 μl of 5% blocking solution (Roche) was added to each well for 1 hr at room temperature (RT). After washing, 100 μl supernatant samples in triplicates were added to the wells as well as serial dilutions of purified sJAML-His and incubated for 1 hr RT. After washing, 100 μl biotinylated DW216 antibodies was added at 10 μg/ml. This was followed after a wash by Streptavidin-HRP diluted at 1:4000. The wells were washed again and after addition of ABTS substrate, wells were analyzed using a microplate reader at 405 nm wavelength.
A general note: In an ELISA, binding on a coated surface is turned into a signal by an enzyme label.

In assay [2] the target is T1, CHO-JAML-His and CHO JAML-6xMyc (Homo sapiens, UniProt Q86YT9).
T1 construct: 6xMyc (cell line CHO JAML-6xMyc); expressed in transfected cells
T1 sequence (Q86YT9 20-394): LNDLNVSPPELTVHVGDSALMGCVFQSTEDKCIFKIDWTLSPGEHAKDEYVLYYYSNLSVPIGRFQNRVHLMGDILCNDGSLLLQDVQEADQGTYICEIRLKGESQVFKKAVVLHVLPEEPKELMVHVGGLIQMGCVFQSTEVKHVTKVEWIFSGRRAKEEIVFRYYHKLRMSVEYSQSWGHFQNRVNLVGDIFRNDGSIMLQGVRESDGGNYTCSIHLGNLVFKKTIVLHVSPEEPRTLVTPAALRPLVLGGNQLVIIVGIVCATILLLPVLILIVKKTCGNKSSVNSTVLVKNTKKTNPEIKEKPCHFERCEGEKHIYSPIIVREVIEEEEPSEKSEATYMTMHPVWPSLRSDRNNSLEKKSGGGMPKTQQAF
Description: FACS staining of stably transfected CHO-JAML cell lines. The following applies: FIG. 1A. It is filed as binding. The source says: BALB/c mice were immunized with recombinant soluble fragment of JAML.D1D2 tagged with 10 His residues at the C-terminus (sJAML-His), generated in H293T cells and purified by Nickel chromatography. After the 4th boost, mice were given a final immunization and, 3 days later, spleen cells harvested and fused to the myeloma cell line P3U1. Hybridomas were selected in HAT medium and supernatants of clones were subjected to screening first to immobilized, soluble JAML and followed by staining of CHO-JAML stable transfectants. Three hybridomas were selected and antibodies were purified from ascites. FACS staining profiles of mAbs using two different, stably transfected CHO-JAML cell lines, CHO-JAML-His and CHO JAML-6xMyc, both membrane bound and tagged at the C-terminus with either 10-His or 6xMyc. Control antibody is 9E10 anti Myc.
These hybridomas were further tested for reactivity against tagged, full-length JAML expressed on the surface of cultured cells. CHO-JAML-6XMyc transfectants were aliquoted and pelleted into round bottom 96 well plates. 100 μl hybridoma supernatants were added for 1 hr at 4° C. Cells were washed and positive wells were identified by FACS analysis using Goat anti Mouse-AlexaFluor 488. Cells from positive wells were cloned by limiting dilution at one cell per well and expanded first in DMEM-10% FBS containing HAT then in medium containing HT (ATCC) and later DMEM, 10% FBS. The cloned cells of interest were sent to Harlan Laboratories (Indianapolis, Ind.) for production of ascites. Antibodies were purified from ascitic fluid using proteinA-Sepharose (GE Healthcare) followed by dialysis against PBS. Aliquots were frozen at −80° C. Ig subclass of each antibody was determined by using the IsoStrip Mouse Monoclonal Antibody Isotyping Kit (Roche Applied Science). […]
Cells suspensions of adherent cells were prepared by trypsinization with Trypsin-EDTA (Sigma). […] After final washes, cells were analyzed using FACS Calibur. […] All samples were stained for JAML (DW100 mAb) and CD11b/CD18 (CBRM 1/29), and only CD11b/CD18 positive cells (PMNs) were analyzed for JAML expression.

Assay [3] addresses T2, JAML binding with CAR (Homo sapiens, UniProt Q86YT9).
T2 construct: soluble JAMLD1D2 was truncated and tagged after residue Leucine259; made in house; host or cells: HEK293T (sJAML-His)
T2 sequence (Q86YT9 20-259): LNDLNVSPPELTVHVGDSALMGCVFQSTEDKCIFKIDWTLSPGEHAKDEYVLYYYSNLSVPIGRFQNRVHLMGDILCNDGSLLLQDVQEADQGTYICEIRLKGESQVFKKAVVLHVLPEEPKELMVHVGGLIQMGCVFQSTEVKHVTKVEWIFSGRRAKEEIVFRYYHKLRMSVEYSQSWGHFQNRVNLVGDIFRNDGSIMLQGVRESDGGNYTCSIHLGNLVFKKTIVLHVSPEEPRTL
Nature of the assay: CAR binding assay (ELISA, CAR-GST on immobilized sJAML-His). The settings on record: CAR-GST 10 μg/ml on immobilized sJAML-His preincubated with antibody; FIG. 1C. On the procedure:
FIG. 1C. CAR binding assay: sJAML-His was coated in Immulon II microtiter microtiter wells overnight, at 4° C. Microtiter wells were washed and blocked and 100 μl antibody solutions were added to wells for 1 hour RT. After washing, CAR-GST was added at 10 μg/ml for 1 hour RT, washed and the assay was developed with HRP conjugated goat anti GST followed by ABTS and OD measurement at 405 nm.
Because certain antibodies recognize the membrane distal domain of JAML, their ability to inhibit binding to CAR was tested. By ELISA, the levels of soluble CAR-GST bound to immobilized sJAML-His preincubated with anti JAML antibodies was measured. […] Thus, these antibodies recognize three different epitopes on JAML and that both DW100 and DW55 bind epitopes close to the JAML binding site. Using a cell aggregation assay, the possibility that DW100 could inhibit the binding of JAML to CAR expressed on the surface of cells was examined. […] This again confirms previously described JAML binding to CAR, as well as the specificity of DW100 (blocking) and DW216 (non-blocking) Abs to JAML.

Assay [4] concerns T84 epithelial monolayers. Description: Scratch wound closure of epithelial monolayers. The format is cell-based, human. The settings on record: T84; mAb 30 μg/ml; FIG. 10A,B. The protocol: T84 epithelial monolayers grown to confluence were wounded by introduction of a single linear scratch wound using a 20-μl plastic pipette tip. Wound closure was monitored over 72 h in the absence or presence of PMN or sJAML. The scale bar is 10 μm.
Whether JAML binding to CAR would affect epithelial wound restitution was investigated. […] If soluble JAML interactions with CAR play a role, the effect could be reversed with the addition of blocking DW100 mAb.
Cell grown in 24-well tissue culture plates received one linear wound using a 20-μl plastic pipette tip attached to low suction. Wounded monolayers were washed once with PBS to remove detached cells and debris, and incubated with the appropriate stimulus added to the medium. The rate of migration was measured by determining the wound area immediately after wounding (t=0) and at the indicated time points. The data are presented as the area of the wound at each time point normalized to t=0. The experiments were carried out in triplicates per condition, and the data shown are representative of 4 independent experiments.

As for `O=S(=O)(F)Cc1ccccc1` [PMSF, Phenylmethylsulfonyl fluoride], in assay [1], the “inhibition of PMA-induced JAML shedding, differentiated HL60” value is “showed some inhibition”. The same measure, in the same setting: the same measure for `NCCc1ccc(S(=O)(=O)F)cc1` [AEBSF]: “No decrease in JAML shedding”; for `CCN1C(=O)C=CC1=O` [N-Ethyl maleimide, N-Ethylmaleimide]: “No decrease in JAML shedding”.

B1: DW216: monoclonal anti-human JAML antibody (IgG1,κ), non-blocking; VH SEQ ID NO:21, VL SEQ ID NO:24 (antibody, V domains shown)
VH: DVQLVESGPGLVKPSQSLSLTCTVTGYSITSDYAWNWIRQFPGNKLEWMGYISSSGNSNYNPSLKSRISITRDTSKNQFFLQLNSVTTEDTATYYCAGATGYSMDYWGQGTTLTVK
VL: VLTQSPAIMSASLGERVTMTCTASSSVSSSYLHWYQQKPGSSPKLWIYSTSNLASGVPARFSGSGSGTSYSLTISSMEAEDAATYYCHQYHRSPFTFGSGTKLELK
In the case of B1, the “FACS staining of CHO-JAML transfectant lines” value in assay [2] was “stained both transfectant lines equally well”. The “inhibition of CAR binding to JAML” value in assay [3] is on record as “did not inhibit at all; also recorded: whereas DW216 did not”. For the same molecule, the “reversal of PMN or sJAML inhibition of wound closure” value in assay [4] was “but not DW216 mAb (30 μg/ml) significantly improved wound restitution”.
